Calls of active or inactive are those of the source. No cut-off for these calls is given here.
Tests used:
Histone deacetylase 1 [1] = molecular target: T1, Histone deacetylase 1 (Homo sapiens, UniProt Q13547); test: Inhibition of human recombinant HDAC1 expressed in baculovirus infected insect High5 cells using Ac-Lys-Tyr-Lys(epsilon-acetyl)-AMC as substrate at 20 ug/ml by fluorescence assay
Histone deacetylase 3 [2] = molecular target: T2, Histone deacetylase 3 (Homo sapiens, UniProt O15379); test: Inhibition of human recombinant HDAC3 expressed in baculovirus infected insect High5 cells using Ac-Lys-Tyr-Lys(epsilon-acetyl)-AMC as substrate at 20 ug/ml by fluorescence assay
T2 sequence (O15379 whole entry): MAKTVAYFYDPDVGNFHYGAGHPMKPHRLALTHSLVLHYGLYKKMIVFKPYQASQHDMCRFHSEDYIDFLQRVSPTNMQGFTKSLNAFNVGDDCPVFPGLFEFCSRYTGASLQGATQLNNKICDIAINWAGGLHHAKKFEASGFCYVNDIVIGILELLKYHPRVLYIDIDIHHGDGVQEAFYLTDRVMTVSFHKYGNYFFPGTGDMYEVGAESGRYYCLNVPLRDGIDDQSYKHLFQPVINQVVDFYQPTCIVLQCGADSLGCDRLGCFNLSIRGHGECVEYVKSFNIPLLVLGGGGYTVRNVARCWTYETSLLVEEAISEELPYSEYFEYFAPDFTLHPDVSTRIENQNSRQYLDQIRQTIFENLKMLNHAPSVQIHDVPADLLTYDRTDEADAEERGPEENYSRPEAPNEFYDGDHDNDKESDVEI

HCT-116 = test: Cytotoxicity against human HCT116 cells after 24 hrs by MTT assay; assay type: functional, cell-based; details: HCT-116, 24 h
[3] = molecular target: T3, Protein deacetylase HDAC6 (Homo sapiens) (UniProt Q9UBN7); test: Inhibition of human recombinant HDAC6 expressed in baculovirus infected insect High5 cells using Boc-Lys(epsilon-acetyl)-AMC as substrate at 20 ug/ml by fluorescence assay
T3 sequence (whole entry): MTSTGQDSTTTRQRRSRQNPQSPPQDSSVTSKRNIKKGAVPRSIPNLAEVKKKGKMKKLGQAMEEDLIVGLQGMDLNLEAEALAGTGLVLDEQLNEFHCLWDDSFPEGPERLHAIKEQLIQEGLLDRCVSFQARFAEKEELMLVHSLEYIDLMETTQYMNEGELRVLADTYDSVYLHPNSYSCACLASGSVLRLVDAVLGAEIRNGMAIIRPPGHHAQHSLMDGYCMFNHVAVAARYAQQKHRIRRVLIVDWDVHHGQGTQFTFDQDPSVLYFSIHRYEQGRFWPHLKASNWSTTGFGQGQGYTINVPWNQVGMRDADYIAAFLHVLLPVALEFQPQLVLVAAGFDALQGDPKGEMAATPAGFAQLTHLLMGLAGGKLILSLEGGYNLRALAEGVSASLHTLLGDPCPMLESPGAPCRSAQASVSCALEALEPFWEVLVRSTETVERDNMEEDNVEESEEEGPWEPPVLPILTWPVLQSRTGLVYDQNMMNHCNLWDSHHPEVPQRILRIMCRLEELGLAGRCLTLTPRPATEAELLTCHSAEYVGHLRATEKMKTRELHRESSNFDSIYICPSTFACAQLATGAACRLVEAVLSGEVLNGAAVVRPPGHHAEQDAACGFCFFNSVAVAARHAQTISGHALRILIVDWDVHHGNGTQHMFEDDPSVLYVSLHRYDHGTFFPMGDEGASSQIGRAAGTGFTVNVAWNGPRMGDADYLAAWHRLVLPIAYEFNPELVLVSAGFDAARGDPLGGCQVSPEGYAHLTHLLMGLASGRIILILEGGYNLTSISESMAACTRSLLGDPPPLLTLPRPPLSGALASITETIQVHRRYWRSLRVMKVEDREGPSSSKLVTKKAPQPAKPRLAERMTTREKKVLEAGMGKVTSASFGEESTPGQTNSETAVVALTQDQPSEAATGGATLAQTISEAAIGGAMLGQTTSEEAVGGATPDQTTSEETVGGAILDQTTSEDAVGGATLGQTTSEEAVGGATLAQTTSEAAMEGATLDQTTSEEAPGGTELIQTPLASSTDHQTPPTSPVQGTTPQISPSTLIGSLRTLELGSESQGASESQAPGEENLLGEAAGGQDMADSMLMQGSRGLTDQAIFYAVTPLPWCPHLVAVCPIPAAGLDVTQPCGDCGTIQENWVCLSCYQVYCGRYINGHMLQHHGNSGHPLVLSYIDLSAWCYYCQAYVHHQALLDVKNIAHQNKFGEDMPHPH

Histone deacetylase 1 [4] = molecular target: T1, Histone deacetylase 1; test: Inhibition of human recombinant HDAC1 expressed in baculovirus infected insect High5 cells using Ac-Lys-Tyr-Lys(epsilon-acetyl)-AMC as substrate by fluorescence assay
Histone deacetylase 3 [5] = molecular target: T2, Histone deacetylase 3; test: Inhibition of human recombinant HDAC3 expressed in baculovirus infected insect High5 cells using Ac-Lys-Tyr-Lys(epsilon-acetyl)-AMC as substrate by fluorescence assay
[6] = molecular target: T4, Protein deacetylase HDAC6 (Homo sapiens, UniProt Q9UBN7); test: Inhibition of human recombinant HDAC6 expressed in baculovirus infected insect High5 cells using Boc-Lys(epsilon-acetyl)-AMC as substrate by fluorescence assay
T4 sequence (Q9UBN7 whole entry): T3 sequence (whole entry)

T1 sequence (Q13547 whole entry): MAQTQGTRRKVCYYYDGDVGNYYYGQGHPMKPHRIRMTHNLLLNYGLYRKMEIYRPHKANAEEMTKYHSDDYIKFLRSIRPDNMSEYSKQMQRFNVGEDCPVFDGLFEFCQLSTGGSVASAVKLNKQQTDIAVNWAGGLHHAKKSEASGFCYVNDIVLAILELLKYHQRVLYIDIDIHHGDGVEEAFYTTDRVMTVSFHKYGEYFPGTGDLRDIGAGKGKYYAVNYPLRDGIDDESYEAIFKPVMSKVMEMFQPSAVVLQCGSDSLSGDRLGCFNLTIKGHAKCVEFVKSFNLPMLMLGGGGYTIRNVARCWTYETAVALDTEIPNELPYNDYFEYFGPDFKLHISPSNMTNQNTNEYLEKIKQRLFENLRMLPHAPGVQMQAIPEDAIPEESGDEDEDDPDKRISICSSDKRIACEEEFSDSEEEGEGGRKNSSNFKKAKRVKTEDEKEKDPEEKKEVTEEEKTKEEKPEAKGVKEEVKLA

| Compound | inhibition (Histone deacetylase 1 [1]) | inhibition (Histone deacetylase 3 [2]) | IC50 (HCT-116) | inhibition [3] | IC50 (Histone deacetylase 1 [4]) | IC50 (Histone deacetylase 3 [5]) | IC50 [6] |
| --- | --- | --- | --- | --- | --- | --- | --- |
| CC(C)CNC(=O)/C=C/C=C/CC/C=C/c1ccc2c(c1)OCO2 [RETROFRACTAMIDE A] | < 50% | < 50% | > 20 µM | < 50% |  |  |  |
| O=C(O)/C=C/C=C/CCCCc1ccc2c(c1)OCO2 | < 50% | < 50% | > 20 µM | < 50% |  |  |  |
| O=C(O)/C=C/C=C/c1ccc2c(c1)OCO2 [PIPERIC ACID] | inactive | inactive | > 20 µM | < 50% |  |  |  |
| O=C(/C=C/C=C/CC/C=C/c1ccc2c(c1)OCO2)NO |  |  | 4.4 µM |  | 0.73 µM | 0.76 µM | 0.73 µM |
| O=C(/C=C/C=C/CCCCc1ccc2c(c1)OCO2)NO |  |  | 3.5 µM |  | 1.61 µM | 1.52 µM | 2.25 µM |
| O=C(O)/C=C/C=C/CC/C=C/c1ccc2c(c1)OCO2 | < 50% | < 50% | > 20 µM | < 50% |  |  |  |
| CC(C)CNC(=O)/C=C/C=C/c1ccc2c(c1)OCO2 [PIPERLONGUMININE] | inactive | inactive | > 20 µM | < 50% |  |  |  |
| O=C(/C=C/C=C/c1ccc2c(c1)OCO2)NO | inactive | inactive | 9.1 µM |  |  |  | 30.4 µM |
